Measurements taken from PMC10826971, “Evaluating protein cross-linking as a therapeutic strategy to stabilize SOD1 variants in a mouse model of familial ALS” (PLOS Biology, 2024).
≈ marks a conversion by molar mass, not a printed value. Where “and” joins values, the source holds several entries; their conditions need not be identical. Equal values may be shown once. Entries after “also recorded” stand apart in the source; their conditions may differ.

Columns and labels:
[1] = target: T1, SOD1^H46R (Homo sapiens, UniProt P00441, H47R); experiment: Differential scanning fluorimetry (DSF), thermal stability; format: binding
T1 construct: made in house; host or cells: EGy118ΔSOD1 yeast, YEp351 expression vector
Experimental: To understand how cross-linking effects SOD1 stability, we quantified changes in unfolding temperature (ΔTu, hereafter thermal stability).
The effect of cross-link formation on the thermal stability of SOD1 was determined by differential scanning fluorimetry as previously described. […] After incubation, SYPRO Orange (Invitrogen Corporation, Carlsbad, California, USA), an environmentally sensitive fluorescent dye which is quenched in an aqueous environment but becomes unquenched once it binds hydrophobic residues, was added to the reaction mixture to a final concentration of 200×. The samples were then transferred to a fast optical 96-well reaction plate (Applied Biosystem, Life Technologies Corporation, Carlsbad, California, USA) and loaded on to the real-time PCR machine (Applied Biosystem, Life Technologies Corporation, Carlsbad, California, USA) after plate was spun down to eliminate bubbles. The Melt curve template in StepOne Plus software was used to set up a method. […] The final concentration of DMSO in the reaction mixture was checked as it contributes to the denaturation of proteins. Dilutions were performed accordingly to maintain the final concentration of DMSO less than 1% (vol/vol). All samples were run in technical triplicates. The background data was subtracted from the average relative fluorescence and average derivate for each temperature point, and the data were normalized before Tus were quantified by averaging the negative first derivative of relative fluorescence of all 3 runs and identifying the local minima.

[2] = test system: wild-type SOD1, SOD1^A4V, SOD1^G93A, SOD1^H46R, and SOD1^G85R; experiment: Mass spectrometry assay for intact protein cross-linking in vitro; format: binding, human
Experimental: We employed a mass spectrometry (MS) assay for intact protein cross-linking. In this assay, any non-covalent (i.e., native) dimer is dissociated by a combination of acidic, organic media and MS source conditions.
Wild-type SOD1, SOD1^A4V, SOD1^G93A, SOD1^H46R, and SOD1^G85R stock solutions were diluted to 40 μm in 10 mM ammonium acetate (pH 7.4). […] Prior to infusion, samples were diluted to 1 μm in 50:50 acetonitrile:water, with 0.1% formic acid. During analysis, 32 scans were acquired in positive mode and averaged. Funnel 1 and skimmer 1 were kept around 150 V and 20 V, respectively, and funnel RF amplitude was held at 60.0 Vpp.

[3] = test system: B6SJL G93A mice; experiment: Survival study, hybrid B6SJL G93A mice, S-XL6 SC 20 then 50 mg/kg once a day Monday to Friday; format: in vivo, mouse
Description: Two fALS lines were used to assess survival in genetic backgrounds with different disease severity. […] Dose and dose regimen were estimated from the blood PK/PD profile and BBB penetration described above. A subcutaneous (SC) route of administration was chosen because in our hands it results in more precise delivery. […] In both studies, mice were gender and littermate matched and non ALS-related deaths were excluded. We are currently developing the methods necessary for quantifying copy number and cannot rule out reduced SOD1 expression as having contributed to the survival benefit in treated B6 G93A mice.
The first line was derived by crossing (over >10 generations) congenic fALS “B6 G93A mice” (B6.Cg-Tg(SOD1*G93A)1Gur/J, Stock No. 004435, The Jackson Laboratory, Bar Harbor, Maine, USA) with “YFP-16 mice” [50] (B6.Cg-Tg(Thy1-YFP)16Jrs/J, Stock No. 003709, The Jackson Laboratory, Bar Harbor, Maine, USA). This line maintains the C57BL/6J genetic background and expresses YFP in motor and sensory neurons to enable cellular-level molecular profiling in future studies. The second line is the standard “Hybrid B6SJL G93A mice” (B6SJL-Tg(SOD1*G93A)1Gur/J Stock No. 002726, The Jackson Laboratory, Bar Harbor, Maine, USA). Methods for survival studies have been described and followed the conventions for optimal trial design with fALS mice. Mice were tested for difference in: (1) disease onset (at least a 20% decrease in grip strength and open-field motor performance, which we expect to correlate with change in weight); (2) disease end-stage (disease score, e.g., loss of righting reflex); and (3) weight. The hybrid line was additionally tested for differences in forelimb and hindlimb grip strength.

[4] = Maximum solubility; format: physicochemical; conditions: pH 7.4, aqueous buffer

T1 sequence (P00441 2-154 H47R limits assumed): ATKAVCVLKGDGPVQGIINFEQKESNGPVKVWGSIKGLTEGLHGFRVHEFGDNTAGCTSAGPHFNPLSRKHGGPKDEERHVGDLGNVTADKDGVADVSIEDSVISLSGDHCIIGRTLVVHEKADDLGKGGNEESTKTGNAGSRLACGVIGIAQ

[O-][S+]1CCCCS1 (stereo not shown) [S-XL6, 1,2-dithiane-1-oxide]
unfolding temperature (Tu) of S-XL6 cross-linked protein ([1]; 10-fold molar excess S-XL6, 4 h 37°C, untreated 46.3°C): 69.3 °C | Normalized ROX ([1]; SOD1 H46R Protein+S-XL6, Avg. Temp 88.537): 0.19 | Normalized ROX ([1]; SOD1 H46R Protein+S-XL6, Avg. Temp 88.845): 0.18 | Normalized ROX ([1]; SOD1 H46R Protein+S-XL6, Avg. Temp 89.124): 0.17 | Normalized ROX ([1]; SOD1 H46R Protein+S-XL6, Avg. Temp 89.441): 0.16 | Normalized ROX ([1]; SOD1 H46R Protein+S-XL6, Avg. Temp 89.738): 0.15 | Normalized ROX ([1]; SOD1 H46R Protein+S-XL6, Avg. Temp 90.026): 0.15 | Normalized ROX ([1]; SOD1 H46R Protein+S-XL6, Avg. Temp 90.347): 0.14 | Normalized ROX ([1]; SOD1 H46R Protein+S-XL6, Avg. Temp 90.631): 0.13 | Normalized ROX ([1]; SOD1 H46R Protein+S-XL6, Avg. Temp 90.929): 0.12 | Normalized ROX ([1]; SOD1 H46R Protein+S-XL6, Avg. Temp 91.236): 0.12 | Normalized ROX ([1]; SOD1 H46R Protein+S-XL6, Avg. Temp 91.540): 0.11 | Normalized ROX ([1]; SOD1 H46R Protein+S-XL6, Avg. Temp 91.847): 0.10 | Normalized ROX ([1]; SOD1 H46R Protein+S-XL6, Avg. Temp 92.140): 0.10 | Normalized ROX ([1]; SOD1 H46R Protein+S-XL6, Avg. Temp 92.454): 0.09 | Normalized ROX ([1]; SOD1 H46R Protein+S-XL6, Avg. Temp 92.741): 0.08 | Normalized ROX ([1]; SOD1 H46R Protein+S-XL6, Avg. Temp 93.029): 0.08 | Normalized ROX ([1]; SOD1 H46R Protein+S-XL6, Avg. Temp 93.345): 0.07 | Normalized ROX ([1]; SOD1 H46R Protein+S-XL6, Avg. Temp 93.646): 0.07 | Normalized ROX ([1]; SOD1 H46R Protein+S-XL6, Avg. Temp 93.947): 0.06 | Normalized ROX ([1]; SOD1 H46R Protein+S-XL6, Avg. Temp 94.241): 0.06 | Normalized ROX ([1]; SOD1 H46R Protein+S-XL6, Avg. Temp 94.530): 0.0527 | Normalized ROX ([1]; SOD1 H46R Protein+S-XL6, Avg. Temp 94.809): 0.05 | Normalized ROX ([1]; SOD1 H46R Protein+S-XL6, Avg. Temp 95.129): 0.0441 | Normalized ROX ([1]; SOD1 H46R Protein+S-XL6, Avg. Temp 95.418): 0.04 | Normalized ROX ([1]; SOD1 H46R Protein+S-XL6, Avg. Temp 95.750): 0.0365 | Normalized ROX ([1]; SOD1 H46R Protein+S-XL6, Avg. Temp 96.054): 0.032 | Normalized ROX ([1]; SOD1 H46R Protein+S-XL6, Avg. Temp 96.342): 0.03 | Normalized ROX ([1]; SOD1 H46R Protein+S-XL6, Avg. Temp 96.634): 0.0257 | Normalized ROX ([1]; SOD1 H46R Protein+S-XL6, Avg. Temp 96.939): 0.0228 | Normalized ROX ([1]; SOD1 H46R Protein+S-XL6, Avg. Temp 97.230): 0.02 | Normalized ROX ([1]; SOD1 H46R Protein+S-XL6, Avg. Temp 97.449): 0.017 | Normalized ROX ([1]; SOD1 H46R Protein+S-XL6, Avg. Temp 97.842): 0.0143 | Normalized ROX ([1]; SOD1 H46R Protein+S-XL6, Avg. Temp 98.133): 0.0127 | Normalized ROX ([1]; SOD1 H46R Protein+S-XL6, Avg. Temp 98.436): 0.01 | Normalized ROX ([1]; SOD1 H46R Protein+S-XL6, Avg. Temp 98.745): 0.00697 | Normalized ROX ([1]; SOD1 H46R Protein+S-XL6, Avg. Temp 99.031): 0.00571 | Normalized ROX ([1]; SOD1 H46R Protein+S-XL6, Avg. Temp 99.342): 0.0034 | Normalized ROX ([1]; SOD1 H46R Protein+S-XL6, Avg. Temp 99.632): 0.00127 | Normalized ROX ([1]; SOD1 H46R Protein+S-XL6, Avg. Temp 99.860): 0.00 | dead-end modifications of SOD1 [2]: not observed | conversion of SOD1 monomer to cross-linked dimer ([2]; denaturing MS conditions): full conversion of monomer to dimer | survival benefit ([3]; 50 mg/kg SC once a day, Monday to Friday, from day 70): no survival benefit; also recorded: No survival improvement | Age (wks) ([3]; individual mice, Tx D (dosed), age at end-stage, found dead or sacrifice): 17.7143 wks and 17.5714 wks and 17.8571 wks and 15.5714 wks and 18.7143 wks and 17.4286 wks and 16.1429 wks and 18 wks and 15.8571 wks and 17.1429 wks | Age ([3]; individual mice, Tx D (dosed), age at end-stage, found dead or sacrifice (131-day mice sac'd for tissue)): 124 days and 123 days and 125 days and 109 days and 131 days and 122 days and 113 days and 126 days and 111 days and 120 days | solubility [4]: 360 mM (≈ 49 mg/mL)
